Where “and” joins values, the source holds several entries; their conditions need not be identical. Equal values may be shown once.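 Cells were grown in 96-well plates and exposed to each compound for 48 hours at five concentrations; endpoints were interpolated linearly between bracketing concentrations, or set to the highest concentration if not reached. GI50 = concentration required for 50% inhibition of growth. TGI denotes the concentration required for complete inhibition of growth.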
Key:
Experiment in all cases: NCI-60 cell line screen, 48 h
BT-549 breast = system: BT-549 breast
DU-145 prostate = system: DU-145 prostate
PC-3 prostate = system: PC-3 prostate
MDA-N = system: MDA-N
SNB-78 CNS = system: SNB-78 CNS
KM20L2 colon = system: KM20L2 colon
HOP-18 NSCLC = system: HOP-18 NSCLC
XF 498 CNS = system: XF 498 CNS

Row | Structure (SMILES) | GI50 (BT-549 breast) [µM] | TGI (BT-549 breast) [µM] | GI50 (DU-145 prostate) | TGI (DU-145 prostate) | GI50 (PC-3 prostate) [µM] | TGI (PC-3 prostate) [µM] | TGI (MDA-N) [µM] | TGI (SNB-78 CNS) [µM] | TGI (KM20L2 colon) [µM] | TGI (HOP-18 NSCLC) [µM] | TGI (XF 498 CNS) [µM] | GI50 (KM20L2 colon) [µM] | GI50 (HOP-18 NSCLC) [µM]
1 | CCc1nc2cc(/C=C/C(=O)NO)c(F)cc2c(=O)n1CCc1ccccc1 | 2.32 | 13.4 | 0.666 µM | 10.5 µM | 3.96 | 75.6 |  |  |  |  |  |  | 
2 | c1ccc(CN2CCC3(CC2)ONC2=NCCN23)cc1 | > 100 | > 100 | > 100 µM | > 100 µM | 49.5 | > 100 |  |  |  |  |  |  | 
3 | S=C(S)NCCCn1ccnc1 |  | > 100 |  | > 100 µM |  | > 100 | > 100 |  |  |  |  |  | 
4 | COc1ccc(S(=O)(=O)N2CCCCC2)cc1NC(=O)c1[nH]c(C)c2c1CCCCC2=O | 4 | > 100 | 7.56 µM | > 100 µM | 2.6 | > 100 |  |  |  |  |  |  | 
5 | CCCCCCCCCCCCCCCC[N+](C)(C)C | 0.267 | 0.873 | 0.233 µM and 1.4 µM | 0.665 µM and 2.91 µM | 0.15 | 0.376 |  |  |  |  |  |  | 
6 | COc1ccccc1NC(=O)N/C(N)=N/c1nc2ccccc2s1 | 0.334 | > 100 | 0.159 µM | > 100 µM | 0.0906 | > 100 |  |  |  |  |  |  | 
7 | COc1cc2c(c(OC)c1OC)C(=O)c1c-2n(CCCN)c(=O)c2cc([N+](=O)[O-])ccc12 | 1.76 | 3.53 | 0.962 µM | 2.31 µM | 0.736 | 3.43 |  |  |  |  |  |  | 
8 | CN(C)c1ccc2c(SCC(=O)OCC(=O)[C@@]3(O)CC[C@H]4[C@@H]5CCC6=CC(=O)C=C[C@]6(C)[C@H]5C(=O)C[C@@]43C)c3ccc(N(C)C)cc3nc2c1 |  | > 49.5 |  | 58.2 µM |  | > 100 | > 100 |  |  |  |  |  | 
9 | CC(C)(C)OC(=O)N(CCCn1c2c(c3ccccc3c1=O)C(=O)c1ccccc1-2)CCN(CCCn1c2c(c3ccccc3c1=O)C(=O)c1ccccc1-2)C(=O)OC(C)(C)C | > 50 | > 50 | > 50 µM | > 50 µM | > 50 | > 50 |  |  |  |  |  |  | 
10 | Cc1cc2cc(Oc3ccnc(Nc4cccc(CS(=O)(=O)NCCN(C)C)c4)n3)ccc2[nH]1 | 5.03 | 18.1 | 9.86 µM | 21.6 µM | 3.38 | 13.2 |  |  |  |  |  |  | 
11 | COc1ccc2c3c([nH]c2c1[N+](=O)[O-])C(C)N(C(=O)/C=C/c1ccccc1)CC3 (centres undefined) |  |  |  |  |  |  |  | > 100 | > 100 |  |  |  | 
12 | CO/N=C(\COc1ccc2c(=O)cc(-c3ccccc3)oc2c1)c1ccc(OC)cc1 | > 100 | > 100 | > 100 µM | > 100 µM | > 100 | > 100 |  |  |  |  |  |  | 
13 | CC(C)(C)c1ccc(NC(=O)c2cc(=O)c3ccccc3[nH]2)c(C(C)(C)C)c1O | 6.77 | 19.9 | 10.7 µM | 23.5 µM | 2.6 | 8.29 |  |  |  |  |  |  | 
14 | O=C(CN1C(=O)c2ccccc2C1=O)OC1C=CCCC1 (centres undefined) |  |  |  |  |  |  |  | > 100 | > 100 | > 100 |  |  | 
15 | COC(=O)/C1=C/C2CC(/C=C(/c3ccccc3)C(=O)O1)C2 |  |  |  |  |  |  |  |  |  | > 100 | 45.2 |  | 
16 | O=C(O)C1(C(=O)O)CCN(S(=O)(=O)c2ccccc2)CC1 |  | > 100 |  | > 100 µM |  | > 100 | > 100 |  |  |  |  |  | 

Row | Structure (SMILES) | GI50 (BT-549 breast) [µM] | TGI (BT-549 breast) [µM] | GI50 (DU-145 prostate) | TGI (DU-145 prostate) | GI50 (PC-3 prostate) [µM] | TGI (PC-3 prostate) [µM] | TGI (MDA-N) [µM] | TGI (SNB-78 CNS) [µM] | TGI (KM20L2 colon) [µM] | TGI (HOP-18 NSCLC) [µM] | TGI (XF 498 CNS) [µM] | GI50 (KM20L2 colon) [µM] | GI50 (HOP-18 NSCLC) [µM]
17 | O=C(/C=C/c1ccccc1)c1ccc(O)c(CN2CCN(c3cc4c(cc3F)c(=O)c(C(=O)O)cn4C3CC3)CC2)c1 | 0.989 | 26.3 | 1.53 µM | > 100 µM | 0.897 | > 100 |  |  |  |  |  |  | 
18 | NC(CCc1nc(-c2ccccc2)cs1)C(=O)O (centres undefined) |  |  |  |  |  |  |  | > 100 |  | > 100 |  |  | 
19 | CC(=O)c1ccc(NCn2nc(-c3ccccc3O)oc2=S)cc1 | 56.2 | > 100 |  |  | 46.4 | > 100 |  |  |  |  |  |  | 
20 | O=C(Oc1ccccc1Cl)c1cccnc1Nc1ccnc(C(F)(F)F)c1 | 5.12 | 22.4 | 15.7 µM | 30.4 µM | 17.8 | 36.3 |  |  |  |  |  |  | 
21 | CC(=O)[CH-]C(=O)c1ccccc1.CC(=O)[CH-]C(=O)c1ccccc1.CC(C)CCCC(C)[C@H]1CCC2[C@@H]3CCC4C[C@@H]([O-])CC[C@]4(C)C3CC[C@@]21C.CC(C)CCCC(C)[C@H]1CCC2[C@@H]3CCC4C[C@@H]([O-])CC[C@]4(C)C3CC[C@@]21C.Cl.[Ti+4] (some centres undefined) |  |  |  |  |  |  |  |  | > 25 | > 25 |  | > 25 | > 25
22 | O=C(O/N=C1/CCC/C1=C\c1ccccc1)c1ccc(Cl)cc1 |  |  |  |  |  |  |  | > 100 | > 100 | > 100 | > 100 |  | 
23 | CC(=O)OC1CC(C)c2c1ncnc2N1CCN(C(=O)OC(C)(C)C)CC1 (centres undefined) | 61 | > 100 | 31.9 µM | 86.9 µM | 38.7 | > 100 |  |  |  |  |  |  | 
24 | C[C@]1(O)CC(=O)[C@]2(O)C3=C(C=C[C@]2(O)C1)C(=O)c1c(O)cccc1C3=O | 2.62 | 9.44 | 1.75 µM | 3.24 µM | 2.42 | 10.1 |  |  |  |  |  |  | 
25 | C/C(=C\c1ccccc1)C(O)S(=O)(=O)O (centres undefined) |  |  |  |  |  |  |  |  | > 100 | > 100 |  |  | 
26 | CC(C)NCCCNC1=C(Cl)C(=O)c2ccccc2C1=O | 5.36 | 18.2 | 1.98 µM | 3.49 µM | 3.92 | 20.7 |  |  |  |  |  |  | 
27 | C#Cc1cccc(N2C(=O)CC(=P(c3ccccc3)(c3ccccc3)c3ccccc3)C2=O)c1 |  |  |  |  |  |  |  | > 100 |  |  | 38.8 |  | 
28 | COc1cc2c(C#N)n3c(c2cc1OC)C(=O)C(c1ccccc1)Oc1ccccc1-3 (centres undefined) | 1.97 | 5.54 | 91 µM | > 100 µM |  |  |  |  |  |  |  |  | 
29 | COc1ccc(OC)c(-c2cn3nc(-c4c[nH]c5ccc(Br)cc45)sc3n2)c1 | 2.9 | 11.2 | 2.8 µM | 7.71 µM | 1.87 | 4.66 |  |  |  |  |  |  | 
30 | CCCCn1c(=O)c(/C=C/C(=O)/C=C/c2ccc(O)c(OC)c2)cc2ccc(Cl)cc21 | 1.76 | 4.25 | 1.79 µM | 3.92 µM | 1.89 | 4.71 |  |  |  |  |  |  | 
31 | COc1ccc(-n2nc(C)c3c(Nc4ccc(NC(=O)Nc5cc(C(F)(F)F)ccc5F)cc4)ncnc32)cc1 | 2.49 | 7.67 | 3.65 µM | > 100 µM | 2.13 | 6.85 |  |  |  |  |  |  | 

Reference: PubChem BioAssay (NCI)
